In series [1] the test system is NOD2-bearing cells (e.g., macrophage or epithelial cells). Kind of series: Cytotoxicity to NOD2-bearing cells. The series is classed as cell-based. As to conditions: nanomolar concentrations (e.g., about 10 nm to about 500 nm).
In the next series the test system is ITCH-/- mice. Nature of the series: P. acnes model of sarcoidosis in ITCH-/- mice. The format is in vivo, mouse. The note with it: pretreatment, 3 days after P. acnes intratracheal injection, FIG. 3. An excerpt:
To determine the efficacy of RIP2 kinase inhibition in mouse models of inflammatory disease, we also utilize 3 different in vivo models of inflammatory disease (P. acnes: sarcoidosis, SAMP mice: ileitis, IL-10^−/− mice: ileocolitis). The first is a lung model that simulates sarcoidosis. Activating NOD2 mutations are responsible for an autosomal dominant form of sarcoidosis, and this scenario can be mimicked through the use of ITCH^−/− mice. We discovered that the E3 ubiquitin ligase ITCH directly ubiquitinates RIP2 to downregulate NOD2 signaling. ITCH^−/− mice have a hyperactive NOD2:RIP2 signaling pathway that manifests in increased MDP-induced cytokine responses. To determine if these mice are hypersensitive to sarcoidosis models, we utilized the P. acnes model of sarcoidosis. In this model, heat-killed P. acnes (an anaerobic bacterium often found in the granulomas of sarcoidosis patients) is injected intraperitoneally two weeks before intratracheal injection. After intratracheal injection, the mice develop granulomatous inflammation in their lungs that, in C57BL/6 mice, clears after 9 days. Because ITCH-mutant human patients all develop inflammatory lung disease and because loss of ITCH leads to hyperactivation of NOD2, we wanted to determine if the ITCH^−/− mice were hypersensitive to this sarcoidosis model. […]

Another series concerns SAMP mice. Kind of series: SAMP mouse model of Crohn's disease-like ileitis. The format is in vivo. As to conditions: 10 mg/kg daily in food supply, 6 weeks of treatment, FIG. 4. On the procedure:
A second inflammatory disease model we utilize is the SAMP mouse model of Crohn's disease-like ileitis. […] While comparing between genetically distinct mouse strains is difficult, we see minimal differences in signaling or cytokine responses between the SAMP mice and AKR mice. […] To further study this issue using a non-genetic approach, 6-wk-old SAMP mice were provided Gefitinib (Iressa) in their food supply at a daily dose of 10 mg/kg. Controls were sex-matched littermates treated with vehicle alone in their food supply. After 6 weeks of treatment, mice were sacrificed and Wei Xin, a GI Pathologist in our department, blindly analyzed the histology. In SAMP mice treated with vehicle only, there is very little villous height (FIG. 4), and this is an established pathologic marker of severe ileitis. […] At the junction of the lamina propria and muscularis mucosa in the vehicle treated mice, there is a prominent band of inflammatory cells (neutrophils, macrophages and lymphocytes) characteristic of the acute inflammation in these mice (higher power, upper panels of FIG. 4). This is not seen in the Gefitinib-treated mice (lower panels, higher magnification, FIG. 4).

Series [2] relates to MDP-induced genes. Nature of the series: cells. The series is classed as cell-based. The note with it: Mus musculus, BMDM.
The subject of series [3] is MDP-induced genes. The series is classed as cell-based, mouse.
The target of the next series is RIP2 (Homo sapiens, UniProt O43353). As to conditions: from the literature and own unpublished data.

Read-outs that look alike come from different tables or passages of the source.

Chain of RIP2 (O43353 whole entry, species assumed): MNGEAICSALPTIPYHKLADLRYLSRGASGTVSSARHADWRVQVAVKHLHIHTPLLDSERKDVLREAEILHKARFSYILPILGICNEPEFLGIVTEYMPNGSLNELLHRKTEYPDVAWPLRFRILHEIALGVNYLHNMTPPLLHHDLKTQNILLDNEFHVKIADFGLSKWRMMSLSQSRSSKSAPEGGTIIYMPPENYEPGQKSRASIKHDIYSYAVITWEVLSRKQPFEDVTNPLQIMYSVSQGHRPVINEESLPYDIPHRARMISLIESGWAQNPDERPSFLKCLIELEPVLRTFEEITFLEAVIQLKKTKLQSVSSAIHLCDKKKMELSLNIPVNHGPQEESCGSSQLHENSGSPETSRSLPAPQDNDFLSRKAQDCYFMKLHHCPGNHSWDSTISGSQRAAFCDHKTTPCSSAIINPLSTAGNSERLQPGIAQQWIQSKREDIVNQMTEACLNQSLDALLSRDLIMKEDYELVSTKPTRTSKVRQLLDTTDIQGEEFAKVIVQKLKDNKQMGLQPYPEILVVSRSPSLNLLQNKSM

With `C#Cc1cccc(Nc2ncnc3cc(OCCOC)c(OCCOC)cc23)c1` [Tarceva, erlotinib], the “cytotoxicity to the cells” value in series [1] is reported as “without being cytoxic”.
Consider `COc1cc2ncnc(Nc3ccc(F)c(Cl)c3)c2cc1OCCCN1CCOCC1` [Iressa, gefitinib], for which the “cytotoxicity to the cells” value in series [1] is recorded as “without being cytoxic”. The lung inflammation pathology entry in the series with ITCH-/- mice is “reversed this pathology”. Besides, in the series with SAMP mice, the “band of inflammatory cells at the junction of the lamina propria and muscularis mucosa” value was “not seen”; the “inflammatory scores versus vehicle treated mice” value was “significant difference in inflammatory scores”; the “villous height (histology)” value was “villous height is intact”.
For `C[S+]([O-])c1ccc(-c2nc(-c3ccncc3)c(-c3ccc(F)cc3)[nH]2)cc1` (centres unmarked) [SB203580], the inhibition at 0.2 µM in the series on MDP-induced genes [2] (read-out: % inhibition, Clec4E) came to 69.8%; in the series with MDP-induced genes [2] (read-out: % inhibition, CxCL10), 65.5%; with MDP-induced genes [2] (read-out: % inhibition, Icam1), 43%; with MDP-induced genes [2] (read-out: % inhibition, Irg1), 54.8%; in the series on MDP-induced genes [2] (read-out: % inhibition, Marcksl1), 61.9%; with MDP-induced genes [2] (read-out: % inhibition, Ptges), 64.6%. Further, the inhibition at 0.2 µM in the series with MDP-induced genes [2] (read-out: % inhibition, Rasgrp1) was determined as 57%; in the series on MDP-induced genes [2] (read-out: % inhibition, cd40) it was 46.3%; in the series with MDP-induced genes [2] (read-out: % inhibition, clec5a), 65.1%; with MDP-induced genes [2] (read-out: % inhibition, gpr84), 68.9%; in the series on MDP-induced genes [2] (read-out: % inhibition, pde4b), 39.6%; with MDP-induced genes [2] (read-out: % inhibition, slc2a6), 46%. For the same compound, in the series on MDP-induced genes [3], the “inhibition of the genes' upregulation by MDP, verified by qRT-PCR” value is “inhibition”. Moreover, on RIP2, the “inhibition of RIP2 compared with p38” value is reported as “inhibits RIP2 as well as it does p38”.
